{"source": "patent US6525001B1", "about": "“Substituted pyrimidine and pyridine herbicides” (Mid-American Commercialization Corporation, priority 1997, dated 2003)", "assay_type_in_all_cases": "in vivo", "key": {"[1]": {"system": "purple nutsedge (Cyperus rotundus)", "assay": "Test B pre-/postemergence", "design": "key: 0 is no effect; 10 is complete control", "settings": "for Nutsedge plant response rating: Rate 125 g/ha; for Plant response rating, Nutsedge: Rate 250 g/ha", "how_it_was_run": "(§1)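 Compounds in a surfactant-containing, non-phytotoxic solvent blend are applied to freshly planted seed (preemergence) and, concurrently, to seedlings of 2 to 18 cm at 1–4 leaves (postemergence). Plants stay in the greenhouse twelve to sixteen days and are then scored visually from 0 (no effect) to 10 (complete control).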"}, "[2]": {"system": "rape (Brassica napus)", "assay": "Test B pre-/postemergence", "design": "key: 0 is no effect; 10 is complete control", "how_it_was_run": "as §1"}, "[3]": {"system": "soybean (Glycine max)", "assay": "Test B pre-/postemergence", "design": "key: 0 is no effect; 10 is complete control", "how_it_was_run": "as §1"}, "[4]": {"system": "sugar beet (Beta vulgaris)", "assay": "Test B pre-/postemergence", "design": "key: 0 is no effect; 10 is complete control", "how_it_was_run": "as §1"}, "[5]": {"system": "velvetleaf (Abutilon theophrasti)", "assay": "Test B pre-/postemergence", "design": "key: 0 is no effect; 10 is complete control", "how_it_was_run": "as §1"}, "[6]": {"system": "wheat (Triticum aestivum)", "assay": "Test B pre-/postemergence", "design": "key: 0 is no effect; 10 is complete control", "how_it_was_run": "as §1"}, "[7]": {"system": "wild oat (Avena fatua)", "assay": "Test B pre-/postemergence", "design": "key: 0 is no effect; 10 is complete control", "how_it_was_run": "as §1"}, "[8]": {"system": "bamyardgrass (Echinochloa crus-galli)", "assay": "Test B flood test", "how_it_was_run": "(§2)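 Read-out is a visual response score from 0 (no effect) to 10 (complete control), assigned by comparison with untreated controls. Treatment was applied at the 2-leaf stage, and plants stayed in the greenhouse for twelve to sixteen days before scoring.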"}, "[9]": {"system": "duck salad (Heteranthera limosa)", "assay": "Test B flood test", "how_it_was_run": "as §2"}, "[10]": {"system": "rice (Oryza sativa)", "assay": "Test B flood test", "how_it_was_run": "as §2"}, "[11]": {"system": "smallflower flatsedge (Cyperus difformis)", "assay": "Test B flood test", "how_it_was_run": "as §2"}, "[12]": {"settings": "Rate 250 g/ha, Postemergence (so in the source)"}, "[13]": {"settings": "Rate 62 g/ha, Postemergence (flood test)"}, "[14]": {"settings": "Rate 125 g/ha, Postemergence, flood test"}, "[15]": {"settings": "Rate 250 g/ha, Postemergence (flood test species)"}, "[16]": {"settings": "Rate 500 g/ha, Postemergence (flood test species)"}, "[17]": {"settings": "Rate 125 g/ha, Postemergence section (flood test species)"}}, "data": [{"molecule": "Cc1cnc(-c2ccc(C(F)(F)F)cc2)nc1Cc1cccc(C#N)c1", "note": "[Compound 32]", "values": [{"measurement": "Nutsedge plant response rating", "setting": "[1]; Postemergence", "value": 0}, {"measurement": "Nutsedge plant response rating", "setting": "[1]; Preemergence", "value": 0}, {"measurement": "Plant response rating, Nutsedge", "setting": "[1]; Postemergence", "value": 1}, {"measurement": "Plant response rating, Nutsedge", "setting": "[1]; Postemergence (so in the source)", "value": 0}, {"measurement": "Plant response rating, Rape", "setting": "[2]; Rate 62 g/ha, Postemergence", "value": 8}, {"measurement": "Rape plant response rating", "setting": "[2]; Rate 62 g/ha, Preemergence", "value": 2}, {"measurement": "Rape plant response rating", "setting": "[2]; Rate 125 g/ha, Postemergence", "value": 8}, {"measurement": "Rape plant response rating", "setting": "[2]; Rate 125 g/ha, Preemergence", "value": 10}, {"measurement": "Plant response rating, Rape", "setting": "[2]; Rate 250 g/ha, Postemergence", "value": 8}, {"measurement": "Plant response rating, Rape", "setting": "[2]; [12]", "value": 10}, {"measurement": "Plant response rating, Soybean", "setting": "[3]; Rate 62 g/ha, Postemergence", "value": 4}, {"measurement": "Soybean plant response rating", "setting": "[3]; Rate 62 g/ha, Preemergence", "value": 0}, {"measurement": "Soybean plant response rating", "setting": "[3]; Rate 125 g/ha, Postemergence", "value": 5}, {"measurement": "Plant response rating, Soybean", "setting": "[3]; Rate 125 g/ha, Preemergence", "value": 0}, {"measurement": "Plant response rating, Soybean", "setting": "[3]; Rate 250 g/ha, Postemergence", "value": 6}, {"measurement": "Plant response rating, Soybean", "setting": "[3]; [12]", "value": 1}, {"measurement": "Plant response rating, Sugarbeets", "setting": "[4]; Rate 62 g/ha, Postemergence", "value": 9}, {"measurement": "Sugarbeets plant response rating", "setting": "[4]; Rate 62 g/ha, Preemergence", "value": 8}, {"measurement": "Sugarbeets plant response rating", "setting": "[4]; Rate 125 g/ha, Postemergence", "value": 10}, {"measurement": "Plant response rating, Sugarbeets", "setting": "[4]; Rate 125 g/ha, Preemergence", "value": 10}, {"measurement": "Plant response rating, Sugarbeets", "setting": "[4]; Rate 250 g/ha, Postemergence", "value": 10}, {"measurement": "Plant response rating, Sugarbeets", "setting": "[4]; [12]", "value": 10}, {"measurement": "Plant response rating, Velvetleaf", "setting": "[5]; Rate 62 g/ha, Postemergence", "value": 4}, {"measurement": "Velvetleaf plant response rating", "setting": "[5]; Rate 62 g/ha, Preemergence", "value": 6}, {"measurement": "Velvetleaf plant response rating", "setting": "[5]; Rate 125 g/ha, Postemergence", "value": 8}, {"measurement": "Plant response rating, Velvetleaf", "setting": "[5]; Rate 125 g/ha, Preemergence", "value": 9}, {"measurement": "Plant response rating, Velvetleaf", "setting": "[5]; Rate 250 g/ha, Postemergence", "value": 9}, {"measurement": "Plant response rating, Velvetleaf", "setting": "[5]; [12]", "value": 10}, {"measurement": "Wheat plant response rating", "setting": "[6]; Rate 62 g/ha, Postemergence", "value": 1}, {"measurement": "Wheat plant response rating", "setting": "[6]; Rate 62 g/ha, Preemergence", "value": 0}, {"measurement": "Wheat plant response rating", "setting": "[6]; Rate 125 g/ha, Postemergence", "value": 2}, {"measurement": "Plant response rating, Wheat", "setting": "[6]; Rate 125 g/ha, Preemergence", "value": 0}, {"measurement": "Plant response rating, Wheat", "setting": "[6]; Rate 250 g/ha, Postemergence", "value": 2}, {"measurement": "Plant response rating, Wheat", "setting": "[6]; [12]", "value": 0}, {"measurement": "Wild oats plant response rating", "setting": "[7]; Rate 62 g/ha, Postemergence", "value": 1}, {"measurement": "Wild oats plant response rating", "setting": "[7]; Rate 62 g/ha, Preemergence", "value": 2}, {"measurement": "Wild oats plant response rating", "setting": "[7]; Rate 125 g/ha, Postemergence", "value": 3}, {"measurement": "Plant response rating, Wild oats", "setting": "[7]; Rate 125 g/ha, Preemergence", "value": 3}, {"measurement": "Plant response rating, Wild oats", "setting": "[7]; Rate 250 g/ha, Postemergence", "value": 3}, {"measurement": "Plant response rating, Wild oats", "setting": "[7]; [12]", "value": 4}, {"measurement": "Plant response rating, Barnyardgrass", "setting": "[8]; [13]", "value": 2}, {"measurement": "Plant response rating, Barnyardgrass", "setting": "[8]; [14]", "value": 3}, {"measurement": "Plant response rating, Barnyardgrass", "setting": "[8]; [15]", "value": 3}, {"measurement": "Plant response rating, Barnyardgrass", "setting": "[8]; [16]", "value": 4}, {"measurement": "Plant response rating, Ducksalad", "setting": "[9]; [13]", "value": 2}, {"measurement": "Plant response rating, Ducksalad", "setting": "[9]; [14]", "value": 3}, {"measurement": "Plant response rating, Ducksalad", "setting": "[9]; [15]", "value": 4}, {"measurement": "Plant response rating, Ducksalad", "setting": "[9]; [16]", "value": 6}, {"measurement": "Plant response rating, Rice", "setting": "[10]; [13]", "value": 1}, {"measurement": "Rice plant response rating", "setting": "[10]; [17]", "value": 1}, {"measurement": "Plant response rating, Rice", "setting": "[10]; [15]", "value": 2}, {"measurement": "Plant response rating, Rice", "setting": "[10]; [16]", "value": 2}, {"measurement": "Plant response rating, S. Flatsedge", "setting": "[11]; [13]", "value": 2}, {"measurement": "S. Flatsedge plant response rating", "setting": "[11]; [17]", "value": 5}, {"measurement": "Plant response rating, S. Flatsedge", "setting": "[11]; [15]", "value": 6}, {"measurement": "Plant response rating, S. Flatsedge", "setting": "[11]; [16]", "value": 7}]}]}
